Tests used:
Italian ryegrass = assay: Test Example 5: herbicidal effect by foliage application, plastic box (Table 20, symbol K); format: in vivo, Italian ryegrass (Lolium multiflorum); details: foliage application, 320 g/ha; for herbicidal effect on Italian ryegrass (K): three weeks after application
Excerpt: (§1) [Test Example 5] Herbicidal Effect Test by Foliage Application
(§2) Sterilized diluvial soil was placed in a plastic box having a length of 21 cm, a width of 13 cm, and a depth of 7 cm. The seeds of each of southern crabgrass, green foxtail, barnyard grass, wild oat, blackgrass, Italian ryegrass, windgrass, velvetleaf, redroot pigweed, lambsquarters, chickweed, false cleavers, persian speedwell, corn, soybean, rice, wheat, beet, and rapeseed were sowed in a spot-like manner and covered with the soil having a thickness of about 1.5 cm. Thereafter, the plants were grown in a greenhouse at 25° C. to 30° C. After 14-day growth of the plants, the emulsion agent of the compound of the present invention prepared according to Formulation Example 2 was diluted with water so as to achieve a predetermined herbicide amount, and the diluted emulsion agent was uniformly applied to a foliage part with a small-sized spray. Three weeks after the herbicide application, the effect of the herbicide on each plant was evaluated according to the criteria of Test Example 1.

velvetleaf = assay: Test Example 5: herbicidal effect by foliage application, plastic box (Table 20, symbol M); format: in vivo, velvetleaf (Abutilon theophrasti); details: foliage application, 320 g/ha; for herbicidal effect on velvetleaf (M): three weeks after application
In short: (§3)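 Plants were sown into sterilized diluvial soil under about 1.5 cm cover and kept in a greenhouse at 25° C. to 30° C. Fourteen days on, foliage received an even spray of the diluted emulsion. Herbicidal or crop effect was judged three weeks afterwards.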

southern crabgrass = assay: Test Example 5: herbicidal effect by foliage application, plastic box (Table 20, symbol F); format: in vivo, southern crabgrass (Digitaria ciliaris); details: foliage application, 320 g/ha; for herbicidal effect on southern crabgrass (F): three weeks after application
In short: as §3

blackgrass = assay: Test Example 5: herbicidal effect by foliage application, plastic box (Table 20, symbol J); format: in vivo, blackgrass (Alopecurus myosuroides); details: foliage application, 320 g/ha; for herbicidal effect on blackgrass (J): three weeks after application
Excerpt: as §1, §2

windgrass = assay: Test Example 5: herbicidal effect by foliage application, plastic box (Table 20, symbol L); format: in vivo, windgrass (Apera spica-venti); details: foliage application, 320 g/ha; for herbicidal effect on windgrass (L): three weeks after application
In short: as §3

wild oat = assay: Test Example 5: herbicidal effect by foliage application, plastic box (Table 20, symbol I); format: in vivo, wild oat (Avena fatua); details: foliage application, 320 g/ha; for herbicidal effect on wild oat (I): three weeks after application
In short: as §3

barnyard grass [1] = assay: Test Example 3: herbicidal effect by foliage application, Wagner pot (Table 18, symbol H); format: in vivo, barnyard grass (Echinochloa crus-galli); details: 320 g/ha
In short: (§4)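 Plants were sown in alluvial soil held under 0.1–0.5 cm standing water and grown 14 days in a greenhouse at 25–30 °C. An emulsifiable formulation, water-diluted to the set dose, was then sprayed onto the foliage, and effects were scored three weeks later using previously defined criteria.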

barnyard grass [2] = assay: Test Example 5: herbicidal effect by foliage application, plastic box (Table 20, symbol H); format: in vivo, barnyard grass (Echinochloa crus-galli); details: foliage application, 320 g/ha; for herbicidal effect on barnyard grass (H): three weeks after application
In short: as §3

green foxtail = assay: Test Example 5: herbicidal effect by foliage application, plastic box (Table 20, symbol G); format: in vivo, green foxtail (Setaria viridis); details: foliage application, 320 g/ha; for herbicidal effect on green foxtail (G): three weeks after application
In short: as §3

persian speedwell = assay: Test Example 5: herbicidal effect by foliage application, plastic box (Table 20, symbol R); format: in vivo, Persian speedwell (Veronica persica); details: foliage application, 320 g/ha; for herbicidal effect on persian speedwell (R): three weeks after application
Excerpt: as §1, §2

rice flat sedge = assay: Test Example 3: herbicidal effect by foliage application, Wagner pot (Table 18, symbol E); format: in vivo, rice flat sedge (Cyperus iria); details: 320 g/ha
Procedure: [Test Example 3] Herbicidal Effect Test by Foliage Application After alluvial soil was placed into 1/10000 are of Wagner pot, water was poured and mixed to form a submerged condition having a water depth of 0.1 cm to 0.5 cm. Seeds of barnyard grass, Chinese sprangletop, rice flat sedge, and rice were sowed and the pot was placed in a greenhouse at 25° C. to 30° C. for growth of the plants. After 14-day growth of the plants, the emulsion agent of the compound of the present invention prepared according to Formulation Example 2 was diluted with water so as to achieve a predetermined herbicide amount, and the diluted emulsion agent was uniformly applied to a foliage part with a small-sized spray. Three weeks after the herbicide application, the effect of the herbicide on each plant was evaluated according to the criteria of Test Example 1.

lambsquarters = assay: Test Example 5: herbicidal effect by foliage application, plastic box (Table 20, symbol O); format: in vivo, lambsquarters (Chenopodium album); details: foliage application, 320 g/ha; for herbicidal effect on lambsquarters (O): three weeks after application
Excerpt: as §1, §2

Chinese sprangletop = assay: Test Example 3: herbicidal effect by foliage application, Wagner pot (Table 18, symbol D); format: in vivo, chinese sprangletop (Leptochloa chinensis); details: 320 g/ha
In short: as §4

SMILES	herbicidal effect on Italian ryegrass (K) (Italian ryegrass)	herbicidal effect on velvetleaf (M) (velvetleaf)	herbicidal effect on southern crabgrass (F) (southern crabgrass)	herbicidal effect on blackgrass (J) (blackgrass)	herbicidal effect on windgrass (L) (windgrass)	herbicidal effect on wild oat (I) (wild oat)	herbicidal effect on barnyard grass (H) (barnyard grass [1])	herbicidal effect on barnyard grass (H) (barnyard grass [2])	herbicidal effect on green foxtail (G) (green foxtail)	herbicidal effect on persian speedwell (R) (persian speedwell)	herbicidal effect on rice flat sedge (E) (rice flat sedge)	herbicidal effect on lambsquarters (O) (lambsquarters)	herbicidal effect on Chinese sprangletop (D) (Chinese sprangletop)	further results
COc1cc2sc(-c3ccc(F)cc3OC)c(-c3c(O)c(C)nn(C)c3=O)c2cc1Cl [5-075]	0 (Herbicidal rate of 5% or less (almost no effect))	0 (Herbicidal rate of 5% or less (almost no effect))	3 (Herbicidal rate of 40% or more and less than 70%)	3 (Herbicidal rate of 40% or more and less than 70%)	3 (Herbicidal rate of 40% or more and less than 70%)	0 (Herbicidal rate of 5% or less (almost no effect))	5 (Herbicidal rate of 90% or more (almost completely withered))	4 (Herbicidal rate of 70% or more and less than 90%)	5 (Herbicidal rate of 90% or more (almost completely withered))	4 (Herbicidal rate of 70% or more and less than 90%)	3 (Herbicidal rate of 40% or more and less than 70%)	4 (Herbicidal rate of 70% or more and less than 90%)	3 (Herbicidal rate of 40% or more and less than 70%)	–
CCCC(=O)Oc1c(C)nn(C)c(=O)c1-c1c(-c2ccc(F)cc2)sc2cc(OC)c(OC)cc12 [5-058]	1 (Herbicidal rate of 5% or more and less than 20%)	0 (Herbicidal rate of 5% or less (almost no effect))	0 (Herbicidal rate of 5% or less (almost no effect))	0 (Herbicidal rate of 5% or less (almost no effect))	0 (Herbicidal rate of 5% or less (almost no effect))	0 (Herbicidal rate of 5% or less (almost no effect))	0 (Herbicidal rate of 5% or less (almost no effect))	0 (Herbicidal rate of 5% or less (almost no effect))	0 (Herbicidal rate of 5% or less (almost no effect))	0 (Herbicidal rate of 5% or less (almost no effect))	3 (Herbicidal rate of 40% or more and less than 70%)	0 (Herbicidal rate of 5% or less (almost no effect))	0 (Herbicidal rate of 5% or less (almost no effect))	–
Cc1nn(C)c(=O)c(-c2c(-c3ccc(CO)cc3)sc3ccccc23)c1O [1-238]	–	–	–	–	–	–	–	–	–	–	–	–	–	effect on Italian ryegrass (K) (Italian ryegrass; 3 weeks after application): 3 (Herbicidal rate of 40% or more and less than 70%); effect on velvetleaf (M) (velvetleaf; 3 weeks after application): 5 (Herbicidal rate of 90% or more (almost completely withered)); effect on southern crabgrass (F) (southern crabgrass; 3 weeks after application): 3 (Herbicidal rate of 40% or more and less than 70%); effect on blackgrass (J) (blackgrass; 3 weeks after application): 0 (Herbicidal rate of 5% or less (almost no effect)); effect on windgrass (L) (windgrass; 3 weeks after application): 0 (Herbicidal rate of 5% or less (almost no effect)); effect on wild oat (I) (wild oat; 3 weeks after application): 0 (Herbicidal rate of 5% or less (almost no effect)); herbicidal effect on H (barnyard grass), rating 0-5 (barnyard grass [1]): 4 (Herbicidal rate of 70% or more and less than 90%); effect on barnyard grass (H) (barnyard grass [2]; 3 weeks after application): 3 (Herbicidal rate of 40% or more and less than 70%); effect on green foxtail (G) (green foxtail; 3 weeks after application): 4 (Herbicidal rate of 70% or more and less than 90%); effect on persian speedwell (R) (persian speedwell; 3 weeks after application): 5 (Herbicidal rate of 90% or more (almost completely withered)); herbicidal effect on E (rice flat sedge), rating 0-5 (rice flat sedge): 4 (Herbicidal rate of 70% or more and less than 90%); effect on lambsquarters (O) (lambsquarters; 3 weeks after application): 4 (Herbicidal rate of 70% or more and less than 90%); herbicidal effect on D (Chinese sprangletop), rating 0-5 (Chinese sprangletop): 4 (Herbicidal rate of 70% or more and less than 90%)
